The source of these data is article doi:10.1101/2020.08.28.272054v2 (biorxiv, 2021).

Among the targets are αCβ3 (Oncopeltus fasciatus, UniProt A0A8S4MUF7); αCβ2 (Oncopeltus fasciatus, UniProt A0A8S4MUF7); αCβ1 (Oncopeltus fasciatus, UniProt A0A8S4MUF7).
Holding throughout (assay): ATPase activity, photometric phosphate release, Sf9 membranes
Common to all, as to assay type: biochemical

αCβ2, sequence (A0A8S4MUF7 1-1007): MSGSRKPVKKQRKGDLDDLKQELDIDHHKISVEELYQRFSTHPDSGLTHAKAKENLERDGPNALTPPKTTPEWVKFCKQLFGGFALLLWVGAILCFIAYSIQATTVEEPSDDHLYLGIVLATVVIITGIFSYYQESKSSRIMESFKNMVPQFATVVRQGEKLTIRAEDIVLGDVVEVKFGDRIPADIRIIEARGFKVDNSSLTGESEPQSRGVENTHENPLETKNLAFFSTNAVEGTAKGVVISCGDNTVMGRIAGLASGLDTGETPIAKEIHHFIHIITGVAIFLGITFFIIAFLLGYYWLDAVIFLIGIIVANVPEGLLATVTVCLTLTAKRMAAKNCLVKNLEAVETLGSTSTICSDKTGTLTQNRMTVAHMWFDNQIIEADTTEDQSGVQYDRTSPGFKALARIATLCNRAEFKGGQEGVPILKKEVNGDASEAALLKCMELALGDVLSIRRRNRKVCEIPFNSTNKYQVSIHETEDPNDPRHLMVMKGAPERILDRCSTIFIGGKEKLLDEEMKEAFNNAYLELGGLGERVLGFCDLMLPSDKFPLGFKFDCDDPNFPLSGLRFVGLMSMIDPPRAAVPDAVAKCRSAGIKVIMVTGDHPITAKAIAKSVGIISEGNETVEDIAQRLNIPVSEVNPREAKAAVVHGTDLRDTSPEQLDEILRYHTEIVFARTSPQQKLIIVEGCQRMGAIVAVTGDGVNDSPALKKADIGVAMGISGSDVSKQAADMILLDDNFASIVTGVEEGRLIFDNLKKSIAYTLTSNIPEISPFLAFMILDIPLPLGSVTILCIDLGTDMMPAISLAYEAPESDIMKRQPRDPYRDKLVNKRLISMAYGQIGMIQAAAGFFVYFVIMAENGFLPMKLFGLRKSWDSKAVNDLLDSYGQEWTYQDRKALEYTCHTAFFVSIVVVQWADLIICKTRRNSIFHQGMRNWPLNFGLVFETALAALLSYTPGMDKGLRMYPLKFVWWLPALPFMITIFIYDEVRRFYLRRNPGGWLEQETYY
αCβ2, sequence (A0A8S4MTQ8 1-322 partner): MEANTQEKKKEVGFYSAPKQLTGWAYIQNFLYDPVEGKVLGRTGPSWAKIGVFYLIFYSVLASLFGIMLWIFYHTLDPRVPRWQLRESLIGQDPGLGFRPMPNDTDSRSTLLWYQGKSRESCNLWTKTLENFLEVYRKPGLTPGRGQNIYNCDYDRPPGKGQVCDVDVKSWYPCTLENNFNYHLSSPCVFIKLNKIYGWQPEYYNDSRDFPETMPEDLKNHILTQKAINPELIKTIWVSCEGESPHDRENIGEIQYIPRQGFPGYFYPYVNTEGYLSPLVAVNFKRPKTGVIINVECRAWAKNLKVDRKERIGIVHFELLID
αCβ3, sequence (A0A8S4MUF7 1-1007): as the sequence (A0A8S4MUF7 1-1007) above
αCβ3, sequence (A0A8S4MV14 1-314 partner): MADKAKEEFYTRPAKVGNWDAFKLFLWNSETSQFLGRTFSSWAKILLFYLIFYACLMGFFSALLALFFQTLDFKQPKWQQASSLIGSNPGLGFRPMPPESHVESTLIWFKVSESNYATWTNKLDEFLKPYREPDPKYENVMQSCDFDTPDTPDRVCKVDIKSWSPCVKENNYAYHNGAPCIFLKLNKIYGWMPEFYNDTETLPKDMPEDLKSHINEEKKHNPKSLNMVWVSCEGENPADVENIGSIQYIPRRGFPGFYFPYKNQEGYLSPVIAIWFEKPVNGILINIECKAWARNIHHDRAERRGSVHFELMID
αCβ1, sequence (A0A8S4MUF7 1-1007): as the sequence (A0A8S4MUF7 1-1007) above
αCβ1, sequence (A0A8S4MTC7 1-330 partner): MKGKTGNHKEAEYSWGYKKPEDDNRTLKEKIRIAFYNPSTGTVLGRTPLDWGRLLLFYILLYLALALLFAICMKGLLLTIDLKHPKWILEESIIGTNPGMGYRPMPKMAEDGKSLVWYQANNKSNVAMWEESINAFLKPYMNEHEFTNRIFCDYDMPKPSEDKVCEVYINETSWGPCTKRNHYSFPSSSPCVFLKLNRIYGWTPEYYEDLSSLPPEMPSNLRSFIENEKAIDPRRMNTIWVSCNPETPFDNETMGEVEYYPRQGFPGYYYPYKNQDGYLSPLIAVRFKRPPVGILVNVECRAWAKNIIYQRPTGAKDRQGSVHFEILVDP

In the case of `C[C@@H]1O[C@@H](O[C@H]2C[C@@H](O)[C@]3(CO)[C@H]4[C@H](O)C[C@]5(C)[C@@H](C6=CC(=O)OC6)CC[C@]5(O)[C@@H]4CC[C@]3(O)C2)[C@H](O)[C@H](O)[C@H]1O` [ouabain], the IC50 against αCβ3 worked out at 758 µM; against αCβ2, 737 µM; against αCβ1 it was 427 µM.

For orientation: IC50 means the point on the concentration scale where inhibition reaches its midpoint. Low readings indicate inhibition by little substance, high ones a need for much substance.
